Source: patent publication US9902713B2, “Neuroprotective compounds and use thereof” (BOARD OF REGENTS OF THE UNIVERSITY OF TEXAS SYSTEM, priority 2013, dated 2018)

Columns and labels:
[1] = system: newborn hippocampal neurons; details: previously reported; cited from earlier work
70 kD polypeptide = assay: Photo-crosslinking of 70 kD polypeptide and competition; type: binding; details: FIG. 13
Text: Note that non-specific, crosslinked bands are not competed by the “A20” variant, but that crosslinking of the 70 kD band was competed.

[2] = system: newborn hippocampal neurons; assay: In vivo neuroprotection assay: BrdU+ newborn hippocampal neurons; parameters: species or system mice; details: for # cell (E6)/mm^3 (number of BrdU+ cells): in vivo neuroprotection assay, Table 2
Description: Results. Our most robust assay involves monitoring neuroprotection of newborn hippocampal neurons in mice because this assay gives a simultaneous readout of efficacy, acute toxicity and cell permeability. For this reason, all analogs of P7C3 were evaluated initially by infusing them directly into the left lateral ventricle of environmentally-deprived^ix live mice using a subcutaneously implanted osmotic minipump. Compounds were delivered intracerebroventricularly (ICV) over a 7 day period at a concentration of 10 μM (12 μL/d).^x Coincident with ICV administration of drug, mice were dosed daily with the thymidine analog bromodeoxyuridine (BrdU, IP, 50 mg/kg) to mark newly born hippocampal neural precursor cells. At the end of the 1 week dosing, animals were sacrificed and transcardially perfused. Brain slices were stained with antibodies to BrdU, and the number of surviving neural precursor cells was quantified by counting the number of BrdU+ cells in the hippocampal dentate gyrus. To avoid complications arising from the surgical implantation of the pump, we quantified neurogenesis in the hemisphere opposite to compound infusion. Finally, to obtain consistent data across many animals, the number of BrdU+ cells was normalized to the volume of the dentate gyrus.
In Vivo Neuroprotection Assay. Test compounds were evaluated as described previously.^2 Compounds were infused intracerebroventricularly (i.c.v.) into the left lateral ventricle of four adult (12 week old) wild-type C57BL/J6 mice by means of surgically implanted Alzet osmotic minipumps that delivered solution into animals at a constant rate of 0.5 μl/hour for 7 days. Alternatively, compounds were administered intraperitoneally twice daily. Bromodeoxyuridine (BrdU) was injected intraperitoneally at 50 mg/kg/day for six days during pump infusion. Twenty-four hours after the final BrdU administration, mice were sacrificed by transcardial perfusion with 4% paraformaldehyde at pH 7.4, and their brains were processed for immunohistochemical detection of incorporated BrdU in the SGZ. Dissected brains were immersed in 4% paraformaldehyde overnight at 4° C., then cryoprotected in sucrose before being sectioned into 40 μm thick free-floating sections. Unmasking of BrdU antigen was achieved through incubating tissue sections for two hours in 50% formamide/2×SSC at 65° C., followed by a five minute wash in 2×SSC and subsequent incubation for thirty minutes in 2M HCl at 37° C. Sections were processed for immunohistochemical staining with mouse monoclonal anti-BrdU (1:100). The number of BrdU+ cells in the entire dentate gyrus SGZ in the contralateral hemisphere (opposite side of surgically implanted pump) was quantified by counting BrdU+ cells within the SGZ and dentate gyrus in every fifth section throughout the entire hippocampus and then normalizing for dentate gyrus volume.

[3] = system: dopaminergic neurons within the substantia nigra; details: previously reported; cited from earlier work
[4] = system: motor neurons in the spinal cord; details: previously reported; cited from earlier work

| Structure (SMILES) | # cell (E6)/mm^3 (number of BrdU+ cells) [2] | increase in the number of BrdU+ cells compared to vehicle ([2]; ICV, 1 week, FIG. 1) | further results |
| --- | --- | --- | --- |
| OC(CNc1ccccn1)Cn1c2ccc(Br)cc2c2cc(Br)ccc21 (stereo not shown) [compound 1, 1-(3,6-dibromo-9H-carbazol-9-yl)-3-(pyridin-2-ylamino)propan-2-ol] | – | – | activity in the in vivo hippocampal neuroprotection assay (previous studies) [1]: maintaining activity |
| C#CCOc1ccc(C(=O)c2cccc(NCC(F)Cn3c4ccc(Br)cc4c4cc(Br)ccc43)c2)cc1 (stereo not shown) [P7C3-S326] | 25 (E6)/mm^3 | – | photo-crosslinking products (70 kD polypeptide): photo-crosslinking of 70 kD polypeptide |
| O=C(CCCC[C@@H]1SC[C@@H]2NC(=O)N[C@@H]21)NCCOCCOCCOCCn1cc(COc2ccc(OCC(O)Cn3c4ccc(Br)cc4c4cc(Br)ccc43)cc2)nn1 (stereo partly shown) [P7C3-S318] | 20.8 (E6)/mm^3 | – | – |
| C#CCOc1ccc(C(=O)c2ccc(NCC(O)Cn3c4ccc(Br)cc4c4cc(Br)ccc43)cc2)cc1 (stereo not shown) [P7C3-S325] | 30.6 (E6)/mm^3 | – | – |
| [N-]=[N+]=NCC(F)Cn1c2ccc(Br)cc2c2cc(Br)ccc21 (stereo not shown) [compound 9, 9-(3-azido-2-fluoropropyl)-3,6-dibromo-9H-carbazole] | – | – | number of surviving newborn hippocampal neurons ([2]; ICV, 1 week, FIG. 1): inactive |
| COc1cccc(NCC(O)Cn2c3ccc(Br)cc3c3cc(Br)ccc32)n1 (stereo not shown) [compound 15, 1-(3,6-dibromo-9H-carbazol-9-yl)-3-((6-methoxypyridin-2-yl)amino)propan-2-ol] | – | 30% | – |
| NCC(F)Cn1c2ccc(Br)cc2c2cc(Br)ccc21 (stereo not shown) [compound 10, 3-(3,6-dibromo-9H-carbazol-9-yl)-2-fluoropropan-1-amine] | – | 30% | – |
| OC(CNc1ccccc1)Cn1c2ccc(Br)cc2c2cc(Br)ccc21 (stereo not shown) [P7C3, 1-(3,6-dibromo-9H-carbazol-9-yl)-3-(phenylamino)propan-2-ol] | 30 (E6)/mm^3 | – | activity in the in vivo hippocampal neuroprotection assay (previous studies) [1]: approximately doubled; protection of substantia nigra neurons from MPTP (earlier report) [3]: protect neurons in the substantia nigra; motor neuron cell death in the spinal cord [4]: minimize motor neuron cell death |
| NCC(O)Cn1c2ccc(Br)cc2c2cc(Br)ccc21 (stereo not shown) [compound 14, 1-amino-3-(3,6-dibromo-9H-carbazol-9-yl)propan-2-ol] | – | 30% | – |
